From the supplement of paper PMC10307832

What was measured:
Assay in all cases: relative viability (nuclei count vs DMSO), 5 days (fraction); higher = more cells survive
Gemcitabine + Lapatinib = compound: Nc1ccn([C@@H]2O[C@H](CO)[C@@H](O)C2(F)F)c(=O)n1 [Gemcitabine] + CS(=O)(=O)CCNCc1ccc(-c2ccc3ncnc(Nc4ccc(OCc5cccc(F)c5)c(Cl)c4)c3c2)o1 [Lapatinib] (partner 2 µM)
Outline: (§1)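 Lung cancer cell lines in 1536-well plates got either a single drug or a fixed anchor-drug dose together with five library-drug doses (not always all listed) in √10 steps, by pin tool, on the day after seeding. Nuclei were counted after 5 days, and relative viability is the treated-to-vehicle ratio of nuclei counts. Values are medians of duplicate plates.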

Gemcitabine + Crizotinib = compound: Nc1ccn([C@@H]2O[C@H](CO)[C@@H](O)C2(F)F)c(=O)n1 [Gemcitabine] + C[C@@H](Oc1cc(-c2cnn(C3CCNCC3)c2)cnc1N)c1c(Cl)ccc(F)c1Cl [Crizotinib] (partner 1 µM)
Outline: as §1

Gemcitabine + Dasatinib = compound: Nc1ccn([C@@H]2O[C@H](CO)[C@@H](O)C2(F)F)c(=O)n1 [Gemcitabine] + Cc1nc(Nc2ncc(C(=O)Nc3c(C)cccc3Cl)s2)cc(N2CCN(CCO)CC2)n1 [Dasatinib] (partner 0.075 µM)
Outline: as §1

Gemcitabine + Pemetrexed = compound: Nc1ccn([C@@H]2O[C@H](CO)[C@@H](O)C2(F)F)c(=O)n1 [Gemcitabine] + Nc1nc2[nH]cc(CCc3ccc(C(=O)N[C@@H](CCC(=O)O)C(=O)O)cc3)c2c(=O)[nH]1 [Pemetrexed] (partner 0.2 µM)
Outline: as §1

Cell Line	relative viability (Gemcitabine + Lapatinib; first compound 0.001 µM)	relative viability (Gemcitabine + Lapatinib; first compound 0.003162 µM)	relative viability (Gemcitabine + Lapatinib; first compound 0.01 µM)	relative viability (Gemcitabine + Lapatinib; first compound 0.03162 µM)	relative viability (Gemcitabine + Lapatinib; first compound 0.1 µM)	relative viability (Gemcitabine + Crizotinib; first compound 0.001 µM)	relative viability (Gemcitabine + Crizotinib; first compound 0.003162 µM)	relative viability (Gemcitabine + Crizotinib; first compound 0.01 µM)	relative viability (Gemcitabine + Crizotinib; first compound 0.03162 µM)	relative viability (Gemcitabine + Crizotinib; first compound 0.1 µM)	relative viability (Gemcitabine + Dasatinib; first compound 0.001 µM)	relative viability (Gemcitabine + Dasatinib; first compound 0.003162 µM)	relative viability (Gemcitabine + Dasatinib; first compound 0.01 µM)	relative viability (Gemcitabine + Dasatinib; first compound 0.03162 µM)	relative viability (Gemcitabine + Dasatinib; first compound 0.1 µM)	relative viability (Gemcitabine + Pemetrexed; first compound 0.001 µM)	relative viability (Gemcitabine + Pemetrexed; first compound 0.003162 µM)	relative viability (Gemcitabine + Pemetrexed; first compound 0.01 µM)	relative viability (Gemcitabine + Pemetrexed; first compound 0.03162 µM)	relative viability (Gemcitabine + Pemetrexed; first compound 0.1 µM)
NCI-H23	0.794	0.601	0.14	0.159	0.109	0.297	0.206	0.12	0.131	0.152	0.865	0.36	0.126	0.135	0.1	0.555	0.223	0.147	0.143	0.143
RERF-LC-KJ	0.858	0.821	0.89	0.909	0.407	0.901	0.866	0.844	0.73	0.252	0.837	0.879	0.768	0.291	0.19	0.5	0.485	0.459	0.357	0.263
NCI-H358	0.436	0.398	0.203	0.212	0.156	0.494	0.228	0.188	0.166	0.135	0.21	0.151	0.0931	0.0759	0.0931	0.145	0.148	0.146	0.118	0.108
LC-2-ad	0.978	0.917	0.82	0.188	0.111	0.471		0.427	0.162	0.109	0.567	0.226	0.193	0.167	0.138	0.266	0.28	0.256	0.255	0.233
HCC-15	0.918	0.88	0.829	0.55	0.121	0.929	0.819	0.79	0.192	0.0758	0.589	0.666	0.561	0.0908	0.0718	0.224	0.226	0.226	0.229	0.109
NCI-H2405	1.03	0.445	0.362	0.243	0.162	0.846	0.775	0.564	0.245	0.22	0.2	0.196	0.199	0.151	0.159	1	0.91	0.552	0.228	0.184
LXF-289	0.922	0.921	0.783	0.282	0.141	0.786	0.783	0.562	0.127	0.112	0.227	0.22	0.0855	0.0424	0.0448	0.901	0.964	0.642	0.102	0.0843
CAL-12T	0.786	0.65	0.396	0.264	0.181	0.684	0.745	0.662	0.227	0.104	0.473	0.395	0.302	0.128	0.114	1.38	1.07	1.04	0.286	0.156
COR-L23	1.02	0.896	0.72	0.105	0.105	0.72	0.565	0.211	0.0732	0.0754	0.606	0.495	0.201	0.0891	0.0729	0.198	0.19	0.19	0.14	0.129
NCI-H1755	0.962	1.04	0.959	0.35	0.265	0.92	0.845	0.681	0.268	0.218	0.454	0.457	0.392	0.243	0.207	0.414	0.47	0.319	0.376	0.355
